Reference: publication PMC12658632, “Discovery of Sesamolin as a Potential Anti-Helicobacter pylori Agent by Virtual Screening against the Essential Response Regulator HsrA with In Vitro Evaluation” (ACS Omega, 2025)
Like-named read-outs stand apart in the source and are kept apart here.

Tests used:
HsrA = molecular target: T1, HsrA (Helicobacter pylori, UniProt O25684); test: SPR (Biacore T200, […] model); also EMSA inhibition of HsrA-DNA binding
T1 construct: gene HP_1043

[1] = molecular target: T2, HsrA (Helicobacter pylori (strain of the recombinant protein not stated)) (UniProt O25684); test: EMSA; details: EMSA binding buffer (Beyotime GS005, composition and pH not stated), 25 uL, 4 uM HsrA, 50 ng each DNA, 25 C 30 min; 5% native PAGE, 0.5x TBE
T2 sequence: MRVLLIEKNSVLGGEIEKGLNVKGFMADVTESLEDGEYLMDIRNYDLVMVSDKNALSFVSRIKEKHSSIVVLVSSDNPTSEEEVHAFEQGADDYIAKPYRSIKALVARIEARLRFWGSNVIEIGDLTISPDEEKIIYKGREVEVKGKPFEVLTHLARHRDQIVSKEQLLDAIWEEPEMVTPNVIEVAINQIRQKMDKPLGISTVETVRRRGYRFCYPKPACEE

T1 sequence (O25684 entry or part of it): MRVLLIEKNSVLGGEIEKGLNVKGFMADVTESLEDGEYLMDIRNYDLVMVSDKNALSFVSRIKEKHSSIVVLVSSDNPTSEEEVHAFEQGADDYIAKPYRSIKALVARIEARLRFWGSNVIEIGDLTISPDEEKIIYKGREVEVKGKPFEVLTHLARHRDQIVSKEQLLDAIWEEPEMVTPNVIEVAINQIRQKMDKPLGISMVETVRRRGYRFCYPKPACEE

In the case of c1cc2c(cc1O[C@H]1OC[C@H]3[C@@H]1CO[C@@H]3c1ccc3c(c1)OCO3)OCO2 [compound 3, Sesamolin], the Kd (HsrA) is reported as 17.1 nM.

Compound c1c2c(cc3c1OCO3)-c1cc3ccc4c(c3c[n+]1CC2)OCO4 [compound 6, Coptisine] has a Kd (HsrA; read-out: Kd) of 400 nM.

For “GCCAAAACGCCTAAAGCCATGATAACCTTTTTCATCGTTTGTCTCCTCTACTTATCAAAATGATCTTAAAATGATACAATTACAAGTTTAAGTTTTGCTTAAAAATGAAGTGAAAATGAGAGAAATAAATATGATTTTATACATTCATATCCCCTTTTGTGAAAATAAATGCGGTTATTGCGCTTTCAA (double strand) [hp1227 promoter probe]”, the binding [1] was “binds”.
